target: human recombinant LRRK2 protein (Homo sapiens, UniProt Q5S007); test: LRRK2 kinase activity assay (ADP-Glo, LRRKtide peptide); format: biochemical; conditions: human recombinant LRRK2 wt, LRRKtide peptide and ATP, 1 h at 37° C.
Method: The inhibition of LRRK2 kinase was assessed using human recombinant LRRK2 protein in an in vitro peptide-based kinase assay.
LRRK2 Kinase reactions were carried out in 384-well white polystyrene plates in a final volume of 6 μl using ADP-Glo™ Kinase Assay kit (Promega Corp.). Compound and substrates (LRRKtide peptide and ATP) in assay buffer were first dispensed in wells. Kinase reaction was then started by the addition of human recombinant LRRK2 protein. After 1 h-incubation at 37° C., the enzymatic reactions was stopped by the addition of 6 μl of ADP-Glo Reagent-1 and an additional 40-minutes incubation at 23° C. (residual ATP depletion). A final 30-minutes incubation after 12 μL reagent-2 addition (ADP to ATP conversion and luciferin/luciferase reaction) was performed before luminescent signal acquisition (EnVision™ multimode plate reader—PerkinElmer, Inc.). Data from 10 individual concentrations of tested compounds (N=2) were fitted (XLfit™—ID Business Solutions Ltd) to deliver IC50s (compound concentration leading to 50% inhibition of reference enzymatic activity).
The compounds are dissolved to 5 mM in DMSO. When needed, solutions are sonicated in a bath sonicator.
Table 2 provides the pIC50 values of the compounds according to the invention, obtained using the above mentioned kinase assay. Activities are represented as +++, ++ and +, having the following meanings: • «+++» means an IC50<10 nM • «++» means an IC50<100 nM • «+» means an IC50<1 μM • «−» means an IC50>1 μM

human recombinant LRRK2 protein, sequence (Q5S007 whole entry): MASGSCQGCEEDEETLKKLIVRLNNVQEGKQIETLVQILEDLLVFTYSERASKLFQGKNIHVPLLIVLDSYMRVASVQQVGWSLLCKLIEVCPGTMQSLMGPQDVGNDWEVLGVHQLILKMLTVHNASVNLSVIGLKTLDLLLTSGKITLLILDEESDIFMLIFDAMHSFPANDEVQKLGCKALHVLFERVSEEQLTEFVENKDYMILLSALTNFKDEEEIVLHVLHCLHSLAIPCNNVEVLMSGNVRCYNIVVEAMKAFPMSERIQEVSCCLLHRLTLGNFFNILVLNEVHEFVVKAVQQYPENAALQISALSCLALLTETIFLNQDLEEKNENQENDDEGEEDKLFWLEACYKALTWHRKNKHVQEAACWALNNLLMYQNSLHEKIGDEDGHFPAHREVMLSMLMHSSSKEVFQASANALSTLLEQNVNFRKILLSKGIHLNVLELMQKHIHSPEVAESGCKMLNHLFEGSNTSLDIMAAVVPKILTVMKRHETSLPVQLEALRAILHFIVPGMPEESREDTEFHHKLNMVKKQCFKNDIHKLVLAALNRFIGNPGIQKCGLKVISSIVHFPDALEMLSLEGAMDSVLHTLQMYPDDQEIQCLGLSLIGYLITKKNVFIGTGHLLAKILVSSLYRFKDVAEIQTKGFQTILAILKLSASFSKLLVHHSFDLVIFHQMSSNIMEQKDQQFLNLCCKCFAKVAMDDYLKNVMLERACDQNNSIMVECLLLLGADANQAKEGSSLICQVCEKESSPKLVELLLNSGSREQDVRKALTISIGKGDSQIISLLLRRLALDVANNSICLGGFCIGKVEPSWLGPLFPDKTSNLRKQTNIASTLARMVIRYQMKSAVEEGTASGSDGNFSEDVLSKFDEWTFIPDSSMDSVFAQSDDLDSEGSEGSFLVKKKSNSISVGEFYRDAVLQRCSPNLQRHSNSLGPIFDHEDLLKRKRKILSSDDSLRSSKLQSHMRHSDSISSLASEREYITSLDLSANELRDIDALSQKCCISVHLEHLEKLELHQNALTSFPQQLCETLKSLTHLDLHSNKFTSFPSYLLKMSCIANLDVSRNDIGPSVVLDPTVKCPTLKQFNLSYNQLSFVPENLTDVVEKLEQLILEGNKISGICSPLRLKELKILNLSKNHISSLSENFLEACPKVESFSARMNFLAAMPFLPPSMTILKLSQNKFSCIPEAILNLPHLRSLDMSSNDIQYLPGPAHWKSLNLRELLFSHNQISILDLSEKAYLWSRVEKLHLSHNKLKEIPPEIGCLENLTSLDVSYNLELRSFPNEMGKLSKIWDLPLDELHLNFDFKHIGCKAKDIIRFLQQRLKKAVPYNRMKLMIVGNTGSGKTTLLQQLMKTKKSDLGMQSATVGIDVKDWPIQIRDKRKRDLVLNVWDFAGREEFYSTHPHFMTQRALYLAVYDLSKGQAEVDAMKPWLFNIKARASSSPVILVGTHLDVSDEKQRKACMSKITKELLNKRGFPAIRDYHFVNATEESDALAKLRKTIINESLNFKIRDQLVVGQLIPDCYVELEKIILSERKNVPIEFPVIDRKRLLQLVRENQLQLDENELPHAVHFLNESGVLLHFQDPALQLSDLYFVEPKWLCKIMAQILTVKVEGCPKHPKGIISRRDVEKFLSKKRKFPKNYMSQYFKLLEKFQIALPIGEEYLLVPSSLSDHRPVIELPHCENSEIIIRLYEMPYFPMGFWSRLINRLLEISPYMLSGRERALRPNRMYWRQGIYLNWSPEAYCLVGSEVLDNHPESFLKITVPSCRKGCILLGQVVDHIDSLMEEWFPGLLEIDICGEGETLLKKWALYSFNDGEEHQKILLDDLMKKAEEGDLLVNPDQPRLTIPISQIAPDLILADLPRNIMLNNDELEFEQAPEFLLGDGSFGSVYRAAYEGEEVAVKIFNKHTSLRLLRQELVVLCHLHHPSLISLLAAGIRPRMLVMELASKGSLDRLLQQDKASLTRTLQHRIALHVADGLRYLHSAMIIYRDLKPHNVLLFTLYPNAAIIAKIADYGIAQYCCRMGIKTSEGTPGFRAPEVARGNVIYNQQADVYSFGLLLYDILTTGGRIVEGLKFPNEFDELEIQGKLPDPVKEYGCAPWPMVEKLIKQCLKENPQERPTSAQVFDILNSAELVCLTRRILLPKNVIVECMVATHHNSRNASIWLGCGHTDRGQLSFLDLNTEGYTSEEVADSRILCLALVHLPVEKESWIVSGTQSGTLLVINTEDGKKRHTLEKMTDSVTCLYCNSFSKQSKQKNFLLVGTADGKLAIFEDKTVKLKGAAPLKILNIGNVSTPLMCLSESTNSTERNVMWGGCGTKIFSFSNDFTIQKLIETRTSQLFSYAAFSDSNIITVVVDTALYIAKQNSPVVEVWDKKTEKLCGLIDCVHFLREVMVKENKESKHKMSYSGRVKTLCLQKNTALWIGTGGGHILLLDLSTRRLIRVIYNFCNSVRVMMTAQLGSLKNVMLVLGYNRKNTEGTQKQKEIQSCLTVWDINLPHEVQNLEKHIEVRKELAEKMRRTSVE

**Q.** Which IC50 does the source give for `O=C1COCCn2ncc(n2)-c2n[nH]c3ccc(cc23)OCCN1` [Example 222, 8,14-dioxa-4,5,11,19,20,23-hexaazatetracyclo[13.5.2.1^2,5.0^18,21]tricosa-1(20),2(23),3,15(22),16,18(21)-hexaen-10-one] here?
**A.** < 1000 nM

**Q.** Which IC50 does the source give for `O=C1CCn2ncc(n2)-c2n[nH]c3ccc(cc23)OCCCN1` [Example 181, 13-oxa-4,5,9,18,19,22-hexaazatetracyclo[12.5.2.1^2,5.0^17,20] docosa-1(19),2(22),3,14(21),15,17(20)-hexaen-8-one] here?
**A.** < 10 nM

**Q.** Which IC50 does the source give for `O=C1COc2cc(Br)cc(c2)-c2n[nH]c3ccc(cc23)OCCCN1` [Example 203, 4-bromo-7,14-dioxa-10,19,20-triazatetracyclo[13.5.2.1^2,6.0^18,21]tricosa-1(20),2(23),3,5,15,17,21-heptaen-9-one] here?
**A.** < 10 nM

**Q.** Which IC50 does the source give for `C[C@@H]1CCOCCOc2nccc(n2)-c2n[nH]c3ccc(cc23)O1` [Example 45, (13R)-13-methyl-7,10,14-trioxa-5,19,20,23-tetraazatetracyclo[13.5.2.1^2,6.0^18,21]tricosa-1(20),2(23),3,5, 15(22),16,18(21)-heptaene] here?
**A.** < 10 nM

**Q.** How did the IC50 turn out when `C[C@H]1CCNC(=O)COc2cc(cc(N3CCOCC3)c2)-c2n[nH]c3ccc(cc23)O1` [Example 174, (13S)-13-methyl-4-(morpholin-4-yl)-7,14-dioxa-10,19,20-triazatetracyclo[13.5.2.1^2,6.0^18,21]tricosa-1(20),2(23),3,5,15,17,21-heptaen-9-one] was run?
**A.** < 10 nM

**Q.** How did the IC50 turn out when `O=C1CCn2ncc(n2)-c2n[nH]c3ccc(cc23)OC[C@H](F)CN1` [Example 227, (11R)-11-fluoro-13-oxa-4,5,9,18,19,22-hexaazatetracyclo [12.5.2.1^2,5.0^17,20]docosa-1(19),2(22),3,14(21),15,17(20)-hexaen-8-one] was run?
**A.** < 10 nM

**Q.** With `C[C@H]1COc2ccc3[nH]nc(c3c2)-c2cnn(c2)[C@@H](C)COCCO1` [Example 89, (6S,12S)-6,12-dimethyl-8,11,14-trioxa-4,5,19,20-tetraazatetracyclo [13.5.2.1^2,5.0^18,21]tricosa-1(20),2(23),3,15(22),16,18(21)-hexaene] as the compound, how does the IC50 read?
**A.** < 10 nM

**Q.** `CC1CN(C)CCCOc2ccc3[nH]nc(c3c2)-c2cncc(c2)O1` (centres unmarked) [Example 161, 8,10-dimethyl-7,14-dioxa-4,10,19,20-tetraazatetracyclo [13.5.2.1^2,6.0^18,21]tricosa-1(20),2,4,6(23),15,17,21-heptaene] was tested. Which IC50 did it give?
**A.** < 100 nM

**Q.** Which IC50 does the source give for `C[C@@H]1CCOCC[C@@H](C)n2ncc(n2)-c2n[nH]c3ccc(cc23)O1` [Example 94, (6R,12R)-6,12-dimethyl-9,13-dioxa-4,5,18,19,22-pentaazatetracyclo[12.5.2.1^2,5.0^17,20]docosa-1(19),2(22),3,14(21),15,17(20)-hexaene] here?
**A.** < 10 nM

**Q.** `c1cc2[nH]nc3c2cc1OCCCNCCOc1cncc-3c1` [Example 137, 7,14-dioxa-4,10,19,20-tetraazatetracyclo[13.5.2.1^2,6.0^18,21]tricosa-1(20),2,4,6(23),15,17,21-heptaene] was tested. Which IC50 did it give?
**A.** < 10 nM

**Q.** For `C[C@H]1COCCOc2ccc3[nH]nc(c3c2)-c2cnn(c2)CCO1` [Example 61, (9S)-9-methyl-8,11,14-trioxa-4,5,19,20-tetraazatetracyclo[13.5.2.1^2,5.0^18,21] tricosa-1(20),2(23),3,15(22),16,18(21)-hexaene], which IC50 is on record?
**A.** < 100 nM

**Q.** Which IC50 does the source give for `C[C@H]1OCCOCCn2cc(cn2)-c2n[nH]c3ccc(cc23)O[C@@H]1C` [Example 113, (12R,13R)-12,13-dimethyl-8,11,14-trioxa-4,5,19,20-tetraazatetracyclo [13.5.2.1^2,5.0^18,21]tricosa-1(20),2(23),3,15(22),16,18(21)-hexaene] here?
**A.** < 10 nM

**Q.** How did the IC50 turn out when `C[C@@H]1CCOCC[C@@H](C)n2cc(cn2)-c2n[nH]c3ccc(cc23)O1` [Example 35, (6R,12R)-6,12-dimethyl-9,13-dioxa-4,5,18,19-tetraazatetracyclo[12.5.2.1^2,5.0^17,20]docosa-1(19),2(22),3,14(21),15,17(20)-hexaene] was run?
**A.** < 10 nM

**Q.** `C[C@H]1COc2ccc3[nH]nc(c3c2)-c2cnn(c2)CCCOCCO1` [Example 129, (13S)-13-methyl-9,12,15-trioxa-4,5,20,21-tetraazatetracyclo[14.5.2.1^2,5.0^19,22]tetracosa-1(21),2(24),3,16(23),17,19(22)-hexaene] was tested. Which IC50 did it give?
**A.** < 100 nM

**Q.** How did the IC50 turn out when `CN1CCCOc2ccc3[nH]nc(c3c2)-c2cc(C#N)cc(c2)OCC1=O` [Example 191, 10-methyl-9-oxo-7,14-dioxa-10,19,20-triazatetracyclo [13.5.2.1^2,6.0^18,21]tricosa-1(20),2,4,6(23),15,17,21-heptaene-4-carbonitrile] was run?
**A.** < 100 nM

**Q.** `c1nn2cc1-c1n[nH]c3cnc(cc13)OCCOCCOCC2` [Example 96, 8,11,14-trioxa-4,5,16,19,20-pentaazatetracyclo[13.5.2.1^2,5.0^18,21]tricosa-1(20),2(23),3,15(22),16,18(21)-hexaene] was tested. Which IC50 did it give?
**A.** < 100 nM

**Q.** Which IC50 does the source give for `C[C@H]1CCOCCCc2cccc(c2)-c2n[nH]c3ccc(cc23)O1` [Example 43, (13S)-13-methyl-10,14-dioxa-19,20-diazatetracyclo[13.5.2.1^2,6.0^18,21]tricosa-1(20),2(23),3,5,15(22),16,18(21)-heptaene] here?
**A.** < 10 nM

**Q.** How did the IC50 turn out when `C[C@@H]1CCOc2ccc3[nH]nc(c3c2)-c2cnn(c2)[C@H](C)CCO1` [Example 123, (6R,10R)-6,10-dimethyl-9,13-dioxa-4,5,18,19-tetraazatetracyclo[12.5.2.1^2,5.0^17,20]docosa-1(19),2(22),3,14(21),15,17(20)-hexaene] was run?
**A.** < 10 nM

**Q.** Which IC50 does the source give for `C[C@H]1CCOCCOc2nccc(n2)-c2n[nH]c3ccc(cc23)O1` [Example 16, (13S)-13-methyl-7,10,14-trioxa-5,19,20,23-tetraazatetracyclo[13.5.2.1^2,6. 0^18,21]tricosa-1(20),2(23),3,5,15(22),16,18(21)-heptaene] here?
**A.** < 10 nM

**Q.** With `C[C@H]1COCCOC[C@H](C)n2cc(cn2)-c2n[nH]c3ccc(cc23)O1` [Example 101, (6S,13S)-6,13-dimethyl-8,11,14-trioxa-4,5,19,20-tetraazatetracyclo[13.5.2.1^2,5.0^18,21]tricosa-1(20),2(23),3,15(22),16,18(21)-hexaene] as the compound, how does the IC50 read?
**A.** < 10 nM

**Q.** `C[C@H]1CCOCCCn2ncc(n2)-c2n[nH]c3ccc(cc23)O1` [Example 92, (12S)-12-methyl-9,13-dioxa-4,5,18,19,22-pentaazatetracyclo[12.5.2.1^2,5.0^17,20]docosa-1(19),2(22),3,14(21),15,17(20)-hexaene] was tested. Which IC50 did it give?
**A.** < 10 nM

**Q.** Which IC50 does the source give for `c1cc2[nH]nc3c2cc1OCCNCCCOc1cc-3cc(N2CCOCC2)c1` [Example 236, 4-(morpholin-4-yl)-7,14-dioxa-11,19,20-triazatetracyclo [13.5.2.1^2,6.0^18,21]tricosa-1(20),2,4,6(23),15,17,21-heptaene] here?
**A.** < 10 nM

**Q.** Which IC50 does the source give for `C[C@@H]1CCNCCCn2cc(cn2)-c2n[nH]c3ccc(cc23)O1` [Example 180, (12R)-12-methyl-13-oxa-4,5,9,18,19-pentaazatetracyclo [12.5.2.1^2,5.0^17,20]docosa-1(19),2(22),3,14(21),15,17(20)-hexaene] here?
**A.** < 100 nM

**Q.** With `C[C@@H]1CCO[C@@H](C)CCn2cc(cn2)-c2n[nH]c3ccc(cc23)O1` [Example 97, (8S,12R)-8,12-dimethyl-9,13-dioxa-4,5,18,19-tetraaza tetracyclo[12.5.2.1^2,5.0^17,20]docosa-1(19),2(22),3,14(21),15,17(20)-hexaene] as the compound, how does the IC50 read?
**A.** < 10 nM

**Q.** For `C[C@@H]1COCCOCCn2ncc(n2)-c2n[nH]c3ccc(cc23)O1` [Example 71, (13R)-13-methyl-8,11,14-trioxa-4,5,19,20,23-pentaazatetracyclo[13.5.2.1^2,5.0^18,21]tricosa-1(20),2(23),3,15(22),16,18(21)-hexaene], which IC50 is on record?
**A.** < 100 nM

**Q.** With `O=C1NCCCOc2ccc3[nH]nc(c3c2)-c2cncc(c2)OC12CC2` [Example 156, 7′,14′-dioxa-4′,10′,19′,20′-tetraazaspiro[cyclopropane-1,8′-tetracyclo[13.5.2.1^2,6.0^18,21]tricosane]-1′(20′),2′(23′),3′,5′,15′,17′,21′-heptaen-9′-one] as the compound, how does the IC50 read?
**A.** < 100 nM

**Q.** For `O=C1COc2cc(cc(N3CCN(CC4CC4)CC3)c2)-c2n[nH]c3ccc(cc23)OCCCN1` [Example 209, 4-[4-(cyclopropylmethyl)piperazin-1-yl]-7,14-dioxa-10,19,20-triazatetracyclo[13.5.2.1^2,6.0^18,21]tricosa-1(20),2(23),3,5,15,17,21-heptaen-9-one], which IC50 is on record?
**A.** < 10 nM

**Q.** Which IC50 does the source give for `O=C1COc2cc(cc(C3CCCCO3)c2)-c2n[nH]c3ccc(cc23)OCCCN1` (centres unmarked) [Example 218, 4-(oxan-2-yl)-7,14-dioxa-10,19,20-triazatetracyclo[13.5.2.1^2,6.0^18,21]tricosa-1(20),2(23),3,5,15,17,21-heptaen-9-one] here?
**A.** < 10 nM

**Q.** `O=C1COc2cc(C3=CCOC3)cc(c2)-c2n[nH]c3ccc(cc23)OCCCN1` [Example 211, 4-(2,5-dihydrofuran-3-yl)-7,14-dioxa-10,19,20-triazatetracyclo[13.5.2.1^2,6.0^18,21]tricosa-1(20),2(23),3,5,15,17,21-heptaen-9-one] was tested. Which IC50 did it give?
**A.** < 10 nM
